The text below walks through data of PMC6369734, “Spy vs. spy: selecting the best reporter for ^19F NMR competition experiments” (Chemical Communications (Cambridge, England), 2019).

This experiment deals with T1, VHL (VBC complex) (Homo sapiens, UniProt P40337).
T1 construct: equimolar complex of pVHL54-213, eloB1-104 and; made in house; host or cells: E. coli
Put plainly: 19F CPMG NMR transverse relaxation rate (R2) and R2 contrast (C2) of spy molecule with and without protein. The format is binding. An excerpt:
Due to the large CSA of fluorine and the significant differences in the fluorine isotropic chemical shift (δF) between the free and bound states, the transverse relaxation rate (R2) is a well-established sensitive parameter to detect ligand binding.[4] Therefore, fluorine NMR experiments including a Carr–Purcell–Meiboom–Gill (CPMG) spin-echo filter[10] before acquisition were employed to monitor ligand binding to VHL by measuring peak intensity, as changes in other NMR parameters, such as chemical shift and peak width, were not as significant. The R2 values of the CF3 peak of each compound in the absence and in the presence of protein were determined by performing multiple ^19F CPMG experiments varying the CPMG filter (Fig. 2a). To quantify the shift in R2 upon binding, the R2 contrast (C2)[11] was determined. Ideally, a good spy molecule should have a large increase in R2 (fast relaxation) when protein is present, resulting in a large assay window for the competition experiments (Fig. 2b).
5. Measurement of the transverse relaxation rates by 19F CPMG NMR
All the NMR experiments were performed in a 500 MHz Bruker AVANCE N MR spectrometer equipped with a CPQCI -F cryoprobe. To measure the transverse relaxation rates (R 2), a solution of each spy molecule at 100 μM was prepared in 50 mM potassium phosphate monobasic (KH2PO4), pH 7.5, 100 mM NaCl, 1 mM TCEP, 2% (v/v) DMSO, 20% D2O and 10 µM trifluoroacetic acid (TFA). For each solution, 19F CPMG experiments […]
Due to the fast relaxation of molecules 21 and 22, these experiments were repeated with shorter CPMG filters (50, 100, 150, 200, 300, 400, 700 and 1000 ms). The fluorine peaks were integrated and plotted against the resp ective CPMG filters. The R 2 relaxation rates were obtained from fitting the data as a n exponential decay (GraphPad Prism 6) according to the equation below: [7]
Where I(t) is the 19F signal intensity or integral, t is the total CPMG filter in seconds, I(0) is the signal intensity when t = 0. To obtain the R2 upon addition of prot ein, all the experiments above were repeated in presence of VBC at 1 µM. Experiments were performed as triplicates and the R 2 contrasts (C2) were obtained according to the equation below: [8]
Where R2Free is the R2 obtained for the spy molecule free in solution and R2Observed is the R2 obtained with the spy molecule in presence of VBC. The raw data, fitting, R2 and C2 values for each spy molecule can be found in section 8.1. For the R2 measurements using molecule 19 at varied concentrations of spy molecule and protein, see section 8.2 . For the R2 measurements using spy molecules 6 and 11 (used to generate figures S 2, S3 and S4) see

Where [1] appears, read: Spy molecule 100 μM + VBC 1 μM, supplement 8.1.
Where [2] appears, read: Spy molecule 100 μM, no protein.
Setting [3] is: Spy molecule 19 at 10 µM, VBC 0.125 μM.
Where [4] appears, read: Spy molecule 19 at 10 µM, VBC 0.250 μM.
The mark [5] stands for this setting: Spy molecule 19 at 10 µM, VBC 0.500 μM.
The mark [6] stands for this setting: Spy molecule 19 at 10 µM, VBC 1.000 μM.
[7] abbreviates: Spy molecule 19 at 25 µM, VBC 0.125 μM.
Setting [8] is: Spy molecule 19 at 25 µM, VBC 0.250 μM.
Setting [9] is: Spy molecule 19 at 25 µM, VBC 0.500 μM.
Where [10] appears, read: Spy molecule 19 at 25 µM, VBC 1.000 μM.
[11] abbreviates: Spy molecule 19 at 50 µM, VBC 0.125 μM.
Setting [12] is: Spy molecule 19 at 50 µM, VBC 0.250 μM.
Where [13] appears, read: Spy molecule 19 at 50 µM, VBC 0.500 μM.
The mark [14] stands for this setting: Spy molecule 19 at 50 µM, VBC 1.000 μM.
Setting [15] is: spy concentration not given, VBC 0.125 μM.
The mark [16] stands for this setting: spy concentration not given, VBC 0.250 μM.
Setting [17] is: spy concentration not given, VBC 0.500 μM.
Where [18] appears, read: spy concentration not given, VBC 1.000 μM.

T1 sequence (P40337 54-213): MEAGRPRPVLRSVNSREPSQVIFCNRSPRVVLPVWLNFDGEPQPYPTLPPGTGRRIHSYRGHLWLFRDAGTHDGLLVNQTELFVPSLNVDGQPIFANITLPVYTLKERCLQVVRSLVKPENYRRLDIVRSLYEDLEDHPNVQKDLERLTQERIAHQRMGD
T1 sequence (Q15370 1-104 partner limits assumed): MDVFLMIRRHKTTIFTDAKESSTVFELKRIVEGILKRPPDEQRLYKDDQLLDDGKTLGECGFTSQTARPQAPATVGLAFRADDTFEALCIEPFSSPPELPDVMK
T1 sequence (Q15369 17-112 partner limits assumed): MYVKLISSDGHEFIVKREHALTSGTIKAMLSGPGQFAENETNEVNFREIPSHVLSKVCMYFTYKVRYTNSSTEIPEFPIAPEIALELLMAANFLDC

On to `CC(C)(C)CC(=O)N1C[C@H](O)C[C@H]1C(=O)NCc1ccc(Br)c(C(F)(F)F)c1` [Compound 3], for which the R2 runs as follows: (Spy molecule 100 μM + VBC 1 μM) 1.847 ± 0.033 s⁻¹; under setting [2], 1.326 ± 0.025 s⁻¹. Under setting [1], the “R2 contrast – C2” value was 28.2 ± 2.3%.
`CC(=O)N1C[C@H](O)C[C@H]1C(=O)NCc1ccc(Br)cc1C(F)(F)F` [Compound 10]: the R2 by setting is: (Spy molecule 100 μM + VBC 1 μM) 2.596 ± 0.046 s⁻¹; under setting [2], 1.249 ± 0.018 s⁻¹. Under setting [1], the “R2 contrast – C2” value is listed as 51.9 ± 2.1%.
For `CC(=O)NC(C(=O)N1CC(O)CC1C(=O)NCc1ccc(Br)cc1C(F)(F)F)C(C)(C)C` (stereo not drawn) [Compound 12], the R2 stood at 1.637 ± 0.028 s⁻¹ (Spy molecule 100 μM + VBC 1 μM) and 1.512 ± 0.029 s⁻¹ under setting [2]. The “R2 contrast – C2” value under setting [1] is on record as 7.6 ± 2.4%.
In the case of `O=C(NCc1ccc(Br)cc1)C1CC(O)CN1C(=O)CC(F)(F)F` (stereo not drawn) [Compound 19], the R2 (Spy molecule 100 μM + VBC 1 μM) stood at 5.096 ± 0.186 s⁻¹; the R2 under setting [2] worked out at 1.526 ± 0.041 s⁻¹; the R2 (Spy molecule 19 at 10 µM, VBC 0.000 μM) is 1.464 ± 0.096 s⁻¹; the R2 under setting [3] was 2.346 ± 0.193 s⁻¹; the R2 under setting [4] came out at 2.807 ± 0.131 s⁻¹; the R2 under setting [5] came out at 4.288 ± 0.304 s⁻¹. Also, the R2 under setting [6] amounted to 7.974 ± 0.727 s⁻¹; the R2 (Spy molecule 19 at 25 µM, VBC 0.000 μM) was determined as 1.582 ± 0.049 s⁻¹; the R2 under setting [7] came out at 2.107 ± 0.095 s⁻¹; the R2 under setting [8] is 2.811 ± 0.156 s⁻¹; the R2 under setting [9] stood at 4.008 ± 0.200 s⁻¹; the R2 under setting [10] came to 6.934 ± 0.348 s⁻¹. In addition, the R2 was 1.475 ± 0.059 s⁻¹ (Spy molecule 19 at 50 µM, VBC 0.000 μM); 1.969 ± 0.071 s⁻¹ under setting [11]; 2.316 ± 0.168 s⁻¹ under setting [12]; 3.857 ± 0.121 s⁻¹ under setting [13]; 6.424 ± 0.262 s⁻¹ under setting [14]; 1.392 ± 0.101 s⁻¹ (spy concentration not given, VBC 0.000 μM). Moreover, the R2 runs as follows: under setting [15], 2.337 ± 0.335 s⁻¹; under setting [16], 3.678 ± 0.489 s⁻¹; under setting [17], 4.255 ± 0.566 s⁻¹; under setting [18], 7.063 ± 1.128 s⁻¹. The “R2 contrast – C2” value runs as follows: under setting [1], 70.1 ± 4.5%; under setting [3], 35.0 ± 8.9%; under setting [4], 45.6 ± 5.3%; under setting [5], 64.4 ± 8.5%; under setting [6], 80.9 ± 11.7%; under setting [7], 27.6 ± 5.1%. Moreover, the “R2 contrast – C2” value under setting [8] came to 45.7 ± 6.3%; the “R2 contrast – C2” value under setting [9] was 61.9 ± 5.9%; the “R2 contrast – C2” value under setting [10] was found to be 78.0 ± 6.4%; the “R2 contrast – C2” value under setting [11] was determined as 22.5 ± 4.2%; the “R2 contrast – C2” value under setting [12] is listed as 34.1 ± 7.9%; the “R2 contrast – C2” value under setting [13] amounted to 60.4 ± 3.8%. In addition, the “R2 contrast – C2” value runs as follows: under setting [14], 76.2 ± 5.2%; under setting [15], 34.7 ± 15.3%; under setting [16], 58.5 ± 15.5%; under setting [17], 64.1 ± 15.8%; under setting [18], 78.4 ± 20.3%.
